The values that follow come from patent publication US4704384A, “Aziridinyl quinone antitumor agents” (priority 1981, dated 1987).

Values joined by “and” are separate entries in the source; they are usually repeats but may differ in a detail not shown here. Equal values may be shown once. “Also recorded” adds a separate entry of the source. Read-outs that look alike come from different tables or passages of the source. Some results are limits rather than exact numbers.

The test system of series [1] is lymphoid leukemia L1210. Conditions: cited from earlier work; for activity in L1210: prior testing.
Series [2] deals with lymphocytic leukemia P388. It counts as in vivo, murine. Conditions: for survivors, P388: Table XI, parentheses, per 6.
In series [3] the test system is lymphoid leukemia L1210.
From the text: ^b Ip tumor implantation, ip QD19 treatment schedule.
^e ILS = [(treated survival + control survival) × 100%] - 100%
The L1210, P388 and B16 test systems described in Table II utilize intraperitoneal (IP) tumor implantation and IP drug treatment while the Lewis lung system employs subcutaneous tumor implantation and IP treatment. All three CNS tumor models (Table III) use intracerebral (IC) tumor implantation and IP treatment.
Aqueous saline solution (0.9%) was used as the drug vehicle. Normally, five doses were employed per experiment with the top dose chosen to produce toxicity. The lower doses were 50% of each preceeding dose.
Consistent with NCI antitumor test protocols, intraperitoneal (IP) administration of the drug was employed with all five tumor systems investigated. Tumor implantation was IP in the systems designated IP leukemia L1210 and P388 as well as B16 melanoma. Intracerebral (IC) tumor implantation was utilized in the IC L1210 and ependymoblastoma tumor systems.
The test system of the next series is ependymoblastoma. It is filed as in vivo, murine. The source says:
^c Ic tumor implantation, ip QD15 treatment schedule.
(§1) A third IC tumor model, the ependymoblastoma system, was also studied. This system requires intracerebral implantation of a solid tumor fragment while the IC L1210 and IC P388 systems utilize IC inoculated ascites tumor fluid. All three use IP drug treatment however. […] Cures (survivors from the group of six mice on the last day of the experiment) are indicated.

For series [4], the system named is lymphoid leukemia L1210. It counts as in vivo, murine.
From the text: as §1

A further series deals with Lewis lung carcinoma. In words: Lewis lung carcinoma test (subcutaneous implant, IP drug). It is filed as in vivo, murine. An excerpt: ^c Subcutaneous tumor implantation, ip QD515 treatment schedule.
For another series, the system named is B16 melanocarcinoma. It counts as in vivo, murine.
Series [5] relates to lymphocytic leukemia P388. The experiment in a line: Intracerebral (IC) P388 antitumor test. It is filed as in vivo, murine. Conditions: for ILS: IP.
From the text: as §1

Series [6] can be described thus: Approximation of human dose from mouse optimum dose. Conditions: approximated from optimum dose of 2 mg/kg in the mouse. As for the experimental part:
Using the assumptions and constants of Freireich et al., Cancer Chemother. Rep., 50, 219 (1966), and an optimum dose of 2 mg/kg in the mouse, an average human maximum tolerated dose of 10 mg per dose can be approximated. An active dose range of 2.5-10 mg per dose can be estimated.

For series [7] the following is noted: reported; Europe / Japan; cited from earlier work.
The mark [8] stands for this setting: IP, QD1-9, 6.25 mg/kg/injection.
Setting [9] is: IP, QD1-9, 1.56 mg/kg/injection.
Where [10] appears, read: IP, QD1-9, 3.12 mg/kg/injection.

Regarding `O=C1C(Cl)=C(N2CC2)C(=O)C(Cl)=C1N1CC1` [Compound 4, 2,5-dichloro-3,6-diaziridinyl-1,4-benzoquinone], in the series with lymphoid leukemia L1210 [1], the “activity in L1210” value is “inactive”.
As a reminder, the ILS is how much longer treated animals lived than controls. As to `CCOC(=O)NC1=C(N2CC2)C(=O)C(NC(=O)OCC)=C(N2CC2)C1=O` [Compound 9, 2,5-DIAZIRIDINYL-3,6-BIS(CARBOETHOXYAMINO)-1,4-BENZOQUINONE], in [2], the “activity in IP P388” value is “very active”. Further, the “optimum dose (OD)” value in [2] is 1 to 2 mg/kg; with lymphoid leukemia L1210 [3] (QD1-9, mouse), 2 mg/kg and 2 to 3 mg/kg. The ILS in series [2] (IP, QD1-9, 0.78 mg/kg/injection) was 111% and 99%; in the series on lymphoid leukemia L1210 [3] (IP, QD1-9, 0.88 mg/kg/injection), 32%; with lymphoid leukemia L1210 [3] (IP, QD1-9, 1.30 mg/kg/injection) it was 60%; with lymphoid leukemia L1210 [3] (IP, QD1-9, 2.00 mg/kg/injection), 125%; in the series on lymphoid leukemia L1210 [3] (setting [8]), 27%; with lymphoid leukemia L1210 [3] (QD1-9, reproducible), over 100%. In addition, the ILS was 30% in the series on ependymoblastoma (QD1-5, 0.25 mg/kg/injection, expt 144); 62% with ependymoblastoma (QD1-5, 0.50 mg/kg/injection, expt 144); 348% with ependymoblastoma (QD1-5, 1.00 mg/kg/injection, expt 133 (day 99)); 126% and 171% in the series with ependymoblastoma (QD1-5, 1.00 mg/kg/injection, expts 136/144 (day 60)); 349% with ependymoblastoma (QD1-5, 2.00 mg/kg/injection, expt 133 (day 99)); 276% in the series with ependymoblastoma (QD1-5, 4.00 mg/kg/injection, expt 136 (day 60)). The ILS was 51% and 46% in the series with lymphoid leukemia L1210 [4] (setting [9]); 84% and 79% with lymphoid leukemia L1210 [4] (setting [10]); 10% and 3% in the series on lymphoid leukemia L1210 [4] (setting [8]); 79% and 84% in the series with lymphoid leukemia L1210 [4] (at OD 3.12 mg/kg); 38% and 34% with Lewis lung carcinoma (IP, 2.00 mg/kg/injection, 2 mg/kg); 38% and 44% and 58% with B16 melanocarcinoma (setting [9]). The ILS in the series on B16 melanocarcinoma (setting [10]) is 58% and 43% and 70%; in [5] (QD1-9, 0.39 mg/kg/injection), 7% and 2%; in series [5] (QD1-9, 0.78 mg/kg/injection), 27% and 25%; in series [5] (QD1-9, 1.56 mg/kg/injection), 37% and 51%; in [5] (QD1-9, 3.12 mg/kg/injection) it was 39% and 31%. For the same compound, the OD is 1.6 mg/kg/injection and 0.8 mg/kg/injection in [2] (Table IV, QD1-9); 3 mg/kg/injection and 2 mg/kg/injection and 4 mg/kg/injection in the series on lymphoid leukemia L1210 [3] (Table IV, QD1-9); 2 mg/kg/injection and 1 mg/kg/injection in the series with ependymoblastoma (Table IV, QD1-5); 3.12 mg/kg in the series with lymphoid leukemia L1210 [4]; 3 mg/kg/injection and 5 mg/kg/injection with lymphoid leukemia L1210 [4] (Table IV, QD1-9); 3.12 mg/kg in the series on B16 melanocarcinoma. Besides, the OD with B16 melanocarcinoma (Table IV, QD1-9) was 3 mg/kg/injection; in [5] (Table IV, QD1-9) it was 1.5 mg/kg/injection and 3 mg/kg/injection. Further, the “survivors of 6 test mice” value in series [2] (Table IV, day 30) was 1; in the series with ependymoblastoma (Table IV, day 60), 5 and 4 and 6. Moreover, the “survivors, P388” value in series [2] was determined as 1. The T-C weight change in series [2] (day 5, QD1-9, 6.25 mg/kg/injection) is -6.1 grams; with ependymoblastoma (day 5, 0.25 mg/kg/injection), -1.5 grams; in the series with ependymoblastoma (day 5, 0.50 mg/kg/injection) it was -1.8 grams; in the series with ependymoblastoma (day 5, 8.00 mg/kg/injection), -5.0 grams. Further, the “activity in IP L1210” value with lymphoid leukemia L1210 [3] is recorded as “greater L1210 activity on the QD1-9 schedule; also recorded: very active”. Besides, in the series on lymphoid leukemia L1210 [3] (Q4D and QD1-9 schedules), the “increase in life span (ILS)” value is over 25%. Also, the “% ILS” value in the series on lymphoid leukemia L1210 [3] (Q4D schedule) was 54%; in the series with lymphoid leukemia L1210 [3] (Table IV summary, QD1-9, at OD) it was 100%; in the series with lymphoid leukemia L1210 [4] (Table IV summary, QD1-9, at OD) it was 84% and 79% and 63% and 58%; in the series with B16 melanocarcinoma (Table IV summary, QD1-9, at OD) it was 94% and 70% and 62%; in [5] (Table IV summary, QD1-9, at OD), 51% and 39%. In the series on ependymoblastoma, the “activity in ependymoblastoma” value was “curative in the EM system; also recorded: very active”. The same compound registered an optimum dose in the series on ependymoblastoma of 1 to 2 mg/kg. In addition, the “Cures (animals alive per six)” value with ependymoblastoma (1.00 mg/kg/injection, day 60 (expts 136/144)) was 1/6 and 5/6; with ependymoblastoma (1.00 mg/kg/injection, day 99 (expt 133)) it was 3/6; in the series on ependymoblastoma (2.00 mg/kg/injection, day 60 (expts 136/144)) it was 5/6; with ependymoblastoma (2.00 mg/kg/injection, day 99 (expt 133)), 4/6; in the series with ependymoblastoma (4.00 mg/kg/injection, day 60) it was 4/6. Further, the “ILS (%) EM” value with ependymoblastoma (Table XI, outstanding activity) was determined as 277%. Also, in the series with ependymoblastoma (Table XI, parentheses, per 6), the “survivors, EM” value is 5. Besides, in the series with lymphoid leukemia L1210 [4], the “activity in IC L1210” value was “reproducible activity; also recorded: substantial”. Besides, in the series with Lewis lung carcinoma, the “activity in Lewis lung” value is “Marginal activity”. In addition, the “activity in B16 melanoma” value with B16 melanocarcinoma is reported as “very active”. Further, the “activity (ILS)” value in the series with B16 melanocarcinoma (as high as, at OD of 3.12 mg/kg) was at most 70%. For the same compound, in series [5], the “activity in IC P388” value is “reproducible activity; also recorded: substantial”. In series [6], the “average human maximum tolerated dose” value is given as about 10 mg per dose.
Consider `COC1=C(Br)C(=O)C(OC)=C(Br)C1=O` [Compound 14, 2,5-dibromo-3,6-dimethoxy-1,4-benzoquinone], for which the “activity in L1210” value in the series on lymphoid leukemia L1210 [1] is “inactive”.
As to `NC1=C(Cl)C(=O)C(N)=C(Cl)C1=O` [Compound 19], the “activity in L1210” value in the series with lymphoid leukemia L1210 [1] is “inactive”.
As for `CC(=O)NC1=C(Cl)C(=O)C(NC(C)=O)=C(Cl)C1=O` [Compound 20, 2,5-dichloro-3,5-acetylamino-1,4-benzoquinone], in the series on lymphoid leukemia L1210 [1], the “activity in L1210” value is “inactive”.
In the case of `CC(=O)NC1=C(N2CC2)C(=O)C(NC(C)=O)=C(N2CC2)C1=O` [Compound 27, reference compound], the “activity in L1210” value in the series with lymphoid leukemia L1210 [1] is listed as “intraperitoneal (IP) leukemia L1210 activity”.
As for `COC1=C(N2CC2)C(=O)C(OC)=C(N2CC2)C1=O` [Compound 28, reference compound], the “activity in L1210” value in the series with lymphoid leukemia L1210 [1] is “intraperitoneal (IP) leukemia L1210 activity”.
Take `O=C1C=C(N2CC2)C(=O)C(N2CC2)=C1N1CC1` [Compound 29, Trenimon]: the “clinical activity” value in [7] is recorded as “Clinical activity has been reported”.
With `COC(COC(N)=O)C1=C(N2CC2)C(=O)C(C)=C(N2CC2)C1=O` (centres unmarked) [Compound 30, carbazilquinone], in series [7], the “clinical activity” value is recorded as “Clinical activity has been reported”.
On to `O=C1C(N2CCN(CCO)CC2)=C(N2CC2)C(=O)C(N2CCN(CCO)CC2)=C1N1CC1` [Compound 47], for which, in [2], the “activity in IP P388” value is on record as “very active producing multiple cures”. In addition, the OD in series [2] (QD1-9, Table IX) is 0.5 mg/kg/injection and 1.0 mg/kg/injection; in the series with lymphoid leukemia L1210 [3] (Day 1 only (1 injection), Table VIII), 4.0 mg/kg/injection; in the series on lymphoid leukemia L1210 [3] (Q4D (day 1,5,9), Table VIII), 4.0 mg/kg/injection and 2.0 mg/kg/injection; in the series with lymphoid leukemia L1210 [3] (QD1-9 (9 injections), Table VIII), 1.0 mg/kg/injection and 0.5 mg/kg/injection; in the series with ependymoblastoma (QD1-5, Table X), 1.0 mg/kg/injection; with lymphoid leukemia L1210 [4] (QD1-9, Table X), 2.0 mg/kg/injection and 1.5 mg/kg/injection. The ILS in series [2] (QD1-9, at OD, Table IX) was 143%; in the series with lymphoid leukemia L1210 [3] (Q4D, at OD, Table VIII), 180%; in the series with ependymoblastoma (QD1-5, at OD, Table X), 75%; in the series on lymphoid leukemia L1210 [4] (QD1-9, at OD, Table X), 43% and 41%; in the series on B16 melanocarcinoma (QD1-9, at OD, Table IX) it was 22%. The “animals alive per 6” value was 3 and 6 in series [2] (QD1-9, day 30, at OD, Table IX); 3 and 4 with lymphoid leukemia L1210 [3] (Q4D, day 30, at OD, Table VIII); 1 in the series with lymphoid leukemia L1210 [3] (QD1-9, day 30, at OD, Table VIII). For the same compound, the “survivors, P388” value in series [2] worked out at 3. For the same compound, the “activity in IP L1210” value with lymphoid leukemia L1210 [3] is “produced cures; also recorded: superior”. Further, the T-C in the series on lymphoid leukemia L1210 [3] (QD1-9, day 5, at OD, Table VIII) is on record as -1.7 grams; with lymphoid leukemia L1210 [4] (QD1-9, day 5, at OD, Table X), -1.4 grams. For the same compound, the “ILS (%) IP L1210” value in the series on lymphoid leukemia L1210 [3] (Table XI, outstanding activity) is reported as 180%. In the series with lymphoid leukemia L1210 [3] (Table XI, parentheses, per 6), the “survivors, IP L1210” value turned out to be 3. Moreover, the “activity in IC L1210” value in the series on lymphoid leukemia L1210 [4] is recorded as “marginal IC L1210 activity”.
`O=C1C(Cl)=C(Cl)C(=O)C(Cl)=C1Cl` [chloranil, tetrachlorobenzoquinone, reference compound]: in the series with lymphoid leukemia L1210 [1], the “activity in L1210” value was “inactive”.
Regarding `O=C1C(N2CC2)=C(N2CC2)C(=O)C(N2CC2)=C1N1CC1` [tetraaziridinyl derivative, reference compound], the ILS with lymphoid leukemia L1210 [1] (L1210 leukemia, earlier evaluation) is on record as 39%.
